Structures can show the parent of a compound that is named as a salt. Where two headings read alike, the source gives them in different places.
Biological target: T1, hNaV1.7 (Homo sapiens, UniProt Q15858)
T1 construct: expressed in transfected cells; host or cells: HEK293
Test: QPatch NaV1.7 assay (whole-cell patch clamp, QPatch16x)
Format: cell-based
Settings: HEK293-hNaV1.7 cells
How it was run: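 HEK293 cells expressing hNaV1.7 recorded by automated whole-cell patch clamp (CsF internal, pH 7.3). Peak currents from 20 ms steps to 0 mV measured at holding potentials of −90 mV and V1/2 SSI; four-point cumulative concentrations, 120 s each, Hill fits gave pIC50 at each potential.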

[1] = holding voltage V1/2 SSI (half of channels inactivated), read-out: QP Nav1.7 SSI vhalf pIC50 (converted)
[2] = holding voltage −90 mV (most channels closed), read-out: QP Nav1.7 −90 mV pIC50 (converted)

T1 sequence (Q15858 whole entry): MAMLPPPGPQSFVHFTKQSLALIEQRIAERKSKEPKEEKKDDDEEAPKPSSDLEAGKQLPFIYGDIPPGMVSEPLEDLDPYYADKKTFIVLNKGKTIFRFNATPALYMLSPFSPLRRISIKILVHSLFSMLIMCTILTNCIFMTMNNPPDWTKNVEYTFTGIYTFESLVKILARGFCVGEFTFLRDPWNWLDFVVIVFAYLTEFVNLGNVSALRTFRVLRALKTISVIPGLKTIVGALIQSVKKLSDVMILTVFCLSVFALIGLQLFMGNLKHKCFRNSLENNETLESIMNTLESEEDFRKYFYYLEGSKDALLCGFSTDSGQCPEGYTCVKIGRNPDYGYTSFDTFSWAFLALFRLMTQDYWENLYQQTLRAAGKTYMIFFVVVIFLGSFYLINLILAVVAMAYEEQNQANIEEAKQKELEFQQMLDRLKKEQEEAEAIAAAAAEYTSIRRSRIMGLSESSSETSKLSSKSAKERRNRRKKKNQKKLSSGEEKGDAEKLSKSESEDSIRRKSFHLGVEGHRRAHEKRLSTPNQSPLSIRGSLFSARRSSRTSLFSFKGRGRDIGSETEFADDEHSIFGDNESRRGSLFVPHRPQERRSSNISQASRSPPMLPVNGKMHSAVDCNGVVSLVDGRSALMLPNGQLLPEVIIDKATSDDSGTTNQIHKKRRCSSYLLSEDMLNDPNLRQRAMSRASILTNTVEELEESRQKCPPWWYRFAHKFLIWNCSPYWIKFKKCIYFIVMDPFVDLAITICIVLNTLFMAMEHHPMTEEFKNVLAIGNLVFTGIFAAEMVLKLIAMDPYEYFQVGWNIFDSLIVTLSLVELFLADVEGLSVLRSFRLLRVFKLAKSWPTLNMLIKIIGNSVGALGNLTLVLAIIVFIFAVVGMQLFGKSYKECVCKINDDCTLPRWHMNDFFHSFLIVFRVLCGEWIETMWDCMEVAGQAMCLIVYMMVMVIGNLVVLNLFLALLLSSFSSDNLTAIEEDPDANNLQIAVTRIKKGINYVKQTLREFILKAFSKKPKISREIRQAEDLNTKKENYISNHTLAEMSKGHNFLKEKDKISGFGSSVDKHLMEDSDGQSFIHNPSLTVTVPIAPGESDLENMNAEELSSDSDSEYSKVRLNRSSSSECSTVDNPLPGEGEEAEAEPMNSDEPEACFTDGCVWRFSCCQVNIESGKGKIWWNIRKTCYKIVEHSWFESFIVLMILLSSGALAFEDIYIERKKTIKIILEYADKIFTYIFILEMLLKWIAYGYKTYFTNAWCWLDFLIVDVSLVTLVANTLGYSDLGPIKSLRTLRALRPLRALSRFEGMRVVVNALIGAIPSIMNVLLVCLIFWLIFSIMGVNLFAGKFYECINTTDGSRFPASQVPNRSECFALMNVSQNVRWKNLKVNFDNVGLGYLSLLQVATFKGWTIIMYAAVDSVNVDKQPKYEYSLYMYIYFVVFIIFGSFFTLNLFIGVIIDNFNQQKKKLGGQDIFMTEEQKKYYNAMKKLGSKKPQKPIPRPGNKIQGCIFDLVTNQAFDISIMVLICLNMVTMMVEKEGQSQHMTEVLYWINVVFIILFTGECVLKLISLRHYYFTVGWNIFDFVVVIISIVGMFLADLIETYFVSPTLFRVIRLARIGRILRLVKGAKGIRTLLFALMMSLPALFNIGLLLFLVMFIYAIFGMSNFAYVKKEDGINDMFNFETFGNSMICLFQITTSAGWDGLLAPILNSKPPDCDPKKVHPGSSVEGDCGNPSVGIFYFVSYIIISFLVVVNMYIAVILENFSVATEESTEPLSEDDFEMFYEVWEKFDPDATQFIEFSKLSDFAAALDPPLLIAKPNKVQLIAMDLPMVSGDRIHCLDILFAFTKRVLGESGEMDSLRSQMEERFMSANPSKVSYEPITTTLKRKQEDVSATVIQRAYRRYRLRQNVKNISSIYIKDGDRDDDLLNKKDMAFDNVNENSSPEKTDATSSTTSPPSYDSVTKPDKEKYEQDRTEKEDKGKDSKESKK

SMILES | IC50 [1] [µM] | IC50 [2] [µM]
CN1CC[C@@]2(CC[C@H](c3cc(-c4cc(OC(F)F)ccc4F)ccn3)N2)C1=O [Example 84, (2R,5S)-2-[4-[5-(Difluoromethoxy)-2-fluoro-phenyl]-2-pyridyl]-7-methyl-1,7-diazaspiro[4.4]nonan-6-one hydrochloride] | 20 | 200
CN1[C@@H](c2cc(-c3ccc(C(F)(F)F)cc3)ccn2)CC[C@]12CCCNC2=O [Example 232, hydrochloride] | 1.26 | 7.94
Cc1cc(-c2cc(C(F)(F)F)ccc2C(N)=O)cc([C@H]2CC[C@]3(CCN(C)C3=O)N2)n1 [Example 26, 2-[2-Methyl-6-[(2R,5R)-7-methyl-6-oxo-1,7-diazaspiro[4.4]nonan-2-yl]-4-pyridyl]-4-(trifluoromethyl)benzamide hydrochloride] | 794 | –
CN1CC[C@@]2(CC[C@H](c3cc(-c4ccccc4OC(F)(F)F)ccn3)N2)C1=O [Example 3, (2R,5S)-7-Methyl-2-[4-[2-(trifluoromethoxy)-phenyl]-2-pyridyl]-1,7-diazaspiro-[4.4]nonan-6-one hydrochloride] | 7.94 | 63.1
CN1CC[C@@]2(CC[C@@H](c3cc(-c4ccc(C(F)(F)F)cc4)ccn3)N2)C1=O [Example 53, (2S,5S)-7-Methyl-2-[4-(4-trifluoromethyl-phenyl)-pyridin-2-yl]-1,7-diaza-spiro[4.4]nonan-6-one hydrochloride] | 39.8 | 100
CCOc1ccc(F)c(-c2ccnc([C@H]3CC[C@@]4(CCCNC4=O)N3)c2)c1 [Example 108, (2R,5R)-2-[4-(5-Ethoxy-2-fluoro-phenyl)-pyridin-2-yl]-1,7-diaza-spiro[4.5]decan-6-one hydrochloride] | 0.0631 | 1.26
CCOc1ccc(F)c(-c2ccnc([C@H]3CC[C@@]4(CC(C)(C)NC4=O)N3)c2)c1 [Example 217, (2R,5S)-2-[4-(5-Ethoxy-2-fluoro-phenyl)-2-pyridyl]-8,8-dimethyl-1,7-diazaspiro[4.4]nonan-6-one hydrochloride] | 3.98 | 25.1
CCOc1cc(F)c(F)c(-c2ccnc([C@H]3CC[C@@]4(CCN(C)C4=O)N3)c2)c1 [Example 175, (2R,5S)-2-[4-(5-Ethoxy-2,3-difluoro-phenyl)-2-pyridyl]-7-methyl-1,7-diazaspiro[4.4]nonan-6-one hydrochloride] | 15.8 | 200
CC(C)Oc1ccc(-c2ccnc([C@H]3CC[C@@]4(CCN(C)C4=O)N3)c2)cc1 [Example 162, (2R,5S)-2-[4-(4-Isopropoxyphenyl)-2-pyridyl]-7-methyl-1,7-diazaspiro[4.4]nonan-6-one hydrochloride] | 3.98 | 15.8
CN1CC[C@@]2(CC[C@H](c3cc(-c4cccc(Cl)c4C#N)ccn3)N2)C1=O [Example 165, 2-Chloro-6-[2-[(2R,5S)-7-methyl-6-oxo-1,7-diazaspiro[4.4]nonan-2-yl]-4-pyridyl]benzonitrile hydrochloride] | 100 | 158
COc1ccc(Cl)c(-c2ccnc([C@H]3CC[C@@]4(CCN(C)C4=O)N3)c2)c1 [Example 83, (2R,5S)-2-[4-(2-Chloro-5-methoxy-phenyl)-2-pyridyl]-7-methyl-1,7-diazaspiro[4.4]nonan-6-one hydrochloride] | 31.6 | 200
CN1CC[C@@]2(CC[C@H](c3cc(-c4ccc(C(F)(F)F)cc4)ccn3)N2C)C1=O [Example 225, (2R,5S)-1,7-Dimethyl-2-[4-[4-(trifluoromethyl)phenyl]-2-pyridyl]-1,7-diazaspiro[4.4]nonan-6-one hydrochloride] | 25.1 | 251
COc1cnc([C@@H]2CC[C@@]3(CCN(C)C3=O)N2)cc1-c1ccc(C(F)(F)F)cc1 [Example 154, (2S,5S)-2-[5-Methoxy-4-[4-(trifluoromethyl)phenyl]-2-pyridyl]-7-methyl-1,7-diazaspiro[4.4]nonan-6-one hydrochloride] | 12.6 | 100
Cc1c(-c2ccc(F)cc2)ccnc1[C@@H]1CC[C@@]2(CCN(C)C2=O)N1 [Example 20, (2S,5S)-2-[4-(4-Fluorophenyl)-3-methyl-2-pyridyl]-7-methyl-1,7-diazaspiro[4.4]nonan-6-one hydrochloride] | 31.6 | 316
Cc1cc(-c2cc(C(F)(F)F)ccc2C#N)cc([C@H]2CC[C@]3(CCN(C)C3=O)N2)n1 [Example 22, 2-[2-Methyl-6-[(2R,5R)-7-methyl-6-oxo-1,7-diazaspiro[4.4]-nonan-2-yl]-4-pyridyl]-4-(trifluoromethyl)-benzonitrile hydrochloride] | 158 | 1000
CN1CC[C@@]2(CC[C@H](c3cc(-c4ccccc4C(F)(F)F)ccn3)N2)C1=O [Example 7, (2R,5S)-7-Methyl-2-[4-[2-(trifluoro-methyl)phenyl]-2-pyridyl]-1,7-diazaspiro[4.4]nonan-6-one hydrochloride] | 31.6 | 100

SMILES | IC50 [1] [µM] | IC50 [2] [µM]
CC(C)c1ccc(F)c(-c2ccnc([C@H]3CC[C@@]4(CCN(C)C4=O)N3)c2)c1 [Example 159, (2R,5S)-2-[4-(2-Fluoro-5-isopropyl-phenyl)-2-pyridyl]-7-methyl-1,7-diazaspiro[4.4]nonan-6-one hydrochloride] | 7.94 | 31.6
CCOc1cccc(-c2cc(C)nc([C@H]3CC[C@@]4(CCN(C)C4=O)N3)c2)c1F [Example 199, (2R,5S)-2-[4-(3-Ethoxy-2-fluoro-phenyl)-6-methyl-2-pyridyl]-7-methyl-1,7-diazaspiro[4.4]nonan-6-one hydrochloride] | 25.1 | 158
CCCOc1cccc(-c2ccnc([C@H]3CC[C@@]4(CCN(C)C4=O)N3)c2)c1 [Example 179, (2R,5S)-7-Methyl-2-[4-(3-propoxyphenyl)-2-pyridyl]-1,7-diazaspiro[4.4]nonan-6-one hydrochloride] | 0.794 | 31.6
CCOc1ccc(F)c(-c2ccnc([C@@H]3CC[C@]4(CCCNC4=O)N3)c2)c1 [Example 106, (2S,5S)-2-[4-(5-Ethoxy-2-fluoro-phenyl)-pyridin-2-yl]-1,7-diaza-spiro[4.5]decan-6-one hydrochloride] | 2 | 5.01
CCOc1ccc(F)c(-c2cc(C)nc([C@H]3CC[C@]4(CCN(C)C4=O)N3)c2)c1 [Example 121, (2R,5R)-2-[4-(5-Ethoxy-2-fluoro-phenyl)-6-methyl-pyridin-2-yl]-7-methyl-1,7-diaza-spiro[4.4]nonan-6-one hydrochloride] | 0.631 | 12.6
O=C1NCC[C@@]12CC[C@@H](c1cc(-c3ccc(C(F)(F)F)cc3F)ccn1)N2 [Example 38, (2S,5S)-2-[4-[2-Fluoro-4-(trifluoro-methyl)phenyl]-2-pyridyl]-1,7-diazaspiro[4.4]nonan-6-one hydrochloride] | 7.94 | 63.1
CN1CC[C@]2(CC[C@@H](c3cc(-c4ccc(C(F)(F)F)cc4)c(F)cn3)N2)C1=O [Example 60, (2S,5R)-2-[5-Fluoro-4-[4-(trifluoromethyl)phenyl]-2-pyridyl]-7-methyl-1,7-diazaspiro[4.4]nonan-6-one hydrochloride] | 3.98 | 79.4
CCOc1ccc(F)cc1-c1ccnc([C@H]2CC[C@@]3(CCN(C)C3=O)N2)c1 [Example 4, (2R,5S)-2-[4-(2-Ethoxy-5-fluoro-phenyl)-pyridin-2-yl]-7-methyl-1,7-diaza-spiro[4.4]nonan-6-one hydrochloride] | 12.6 | 200
CN1CC[C@@]2(CC[C@H](c3cc(-c4cc(F)cc(F)c4)ccn3)N2)C1=O [Example 77, (2R,5S)-2-[4-(3,5-Difluorophenyl)-2-pyridyl]-7-methyl-1,7-diazaspiro[4.4]nonan-6-one hydrochloride] | 31.6 | 316
CN1CC[C@@]2(CC[C@H](c3cc(-c4ccc5c(ccn5C)c4)ccn3)N2)C1=O [Example 79, (2R,5S)-7-Methyl-2-[4-(1-methylindol-5-yl)-2-pyridyl]-1,7-diazaspiro[4.4]nonan-6-one hydrochloride] | 31.6 | 398
COCc1ccc(F)c(-c2ccnc([C@H]3CC[C@@]4(CCN(C)C4=O)N3)c2)c1 [Example 188, (2R,5S)-2-[4-[2-Fluoro-5-(methoxymethyl)phenyl]-2-pyridyl]-7-methyl-1,7-diazaspiro[4.4]nonan-6-one hydrochloride] | 100 | 501
Cc1cc(-c2ccc(C(F)(F)F)cc2)cc([C@H]2CC[C@@]3(CCNC3=O)N2C)n1 [Example 229, (2R,5S)-1-Methyl-2-[6-methyl-4-[4-(trifluoromethyl)phenyl]-2-pyridyl]-1,7-diazaspiro[4.4]nonan-6-one hydrochloride] | 3.16 | 63.1
CN1CC[C@@]2(CC[C@H](c3cc(-c4cc(OCC(F)F)ccc4F)ccn3)N2)C1=O [Example 252, (2R,5S)-2-[4-[5-(2,2-Difluoroethoxy)-2-fluoro-phenyl]-2-pyridyl]-7-methyl-1,7-diazaspiro[4.4]nonan-6-one hydrochloride] | 12.6 | 79.4
O=C1NCC[C@@]12CC[C@H](c1cc(-c3ccc(C(F)(F)F)cc3F)ccn1)N2 [Example 39, (2R,5S)-2-[4-[2-Fluoro-4-(trifluoro-methyl)phenyl]-2-pyridyl]-1,7-diazaspiro[4.4]nonan-6-one hydrochloride] | 20 | 79.4
Cc1cc(-c2ccc(C(F)(F)F)cc2)cc([C@@H]2CC[C@@]3(CCNC3=O)N2)n1 [Example 97, (2S,5S)-2-[6-Methyl-4-[4-(trifluoromethyl)phenyl]-2-pyridyl]-1,7-diazaspiro[4.4]nonan-6-one hydrochloride] | 1.26 | 20

— patent US9376436B2, “2-(pyridin-2yl)-1, 7-diaza-spiro [4.4] nonane-6-one compound as voltage-gated sodium channels modulators” (CONVERGENCE PHARMACEUTICALS LIMITED, priority 2011, dated 2016)
